For twelve compounds, TGI results are on record in PubChem BioAssay (NCI).

Molecules are shown by their SMILES.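 Method: 48-hour compound exposure of cells in 96-well plates, five concentrations, linear interpolation of endpoints. TGI: concentration producing complete growth inhibition.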

The first assay deals with MDA-N. Kind of assay: growth of human tumour cells (NCI), 48 h.
In turn, `CCOC(=O)CCC(NC(=O)Cc1ccc(Nc2nc3ccccc3nc2-c2ccccc2)cc1)C(=O)OCC` (stereo not given) displayed a TGI of over 100 µM.
Still for that read-out and setting: under `Cc1occc1C(=S)Nc1ccc(Cl)c(C(=O)OCC(F)(F)F)c1` stands over 100 µM.
On the same count and under the same terms, under `CCOC(=O)NC(C(F)(F)F)(C(F)(F)F)P(=O)(OC(C)C)OC(C)C` stands over 100 µM.
Same read-out and setting: then `O=C(O)C1CC2C3CCC2C1C3=O` (stereo not given), with over 100 µM; and `CCOC(=O)C(c1c[nH]c2ccccc12)(c1c[nH]c2ccccc12)c1c[nH]c2ccccc12`, with over 100 µM.
`CN(C)c1ccc(-c2c(C#N)c(N)[nH]c(=S)c2C#N)cc1` came in with a TGI of over 100 µM.
For the compound `O=c1[nH]c(=O)n(C2OC(CO)C(O)C(F)C2O)cc1F` (stereo not given), the TGI was over 100 µM.
Still for that read-out and setting: then `CCOC(=O)/C(C)=C\[C@@]1(C)O[C@@H](C)[C@@](C)(OC(C)=O)[C@@H]1OC(C)=O`, with over 100 µM.

For a further assay, the system named is HT29 colon. In words: growth of human tumour cells (NCI), 48 h.
`O=c1c2cc(S(=O)(=O)Nc3ccccc3Cl)ccc2ncn1NS(=O)(=O)c1ccc(Br)cc1` displayed a TGI of over 37.5 µM.
Still for that read-out and setting: under `N#CC1(C#N)C2CCCCC23OC(=N)C1(C#N)C(c1ccco1)O3` (stereo not given) stands over 100 µM.
The same measure, in the same setting: then `CC1C2CC(CC(=O)N2)C1(C)C` (stereo not given), with over 100 µM; and `CCOC(=O)CCC(NC(=O)Cc1ccc(Nc2nc3ccccc3nc2-c2ccccc2)cc1)C(=O)OCC` (stereo not given), with over 100 µM; and `Cc1occc1C(=S)Nc1ccc(Cl)c(C(=O)OCC(F)(F)F)c1`, with 33.7 µM.
Still for that read-out and setting: then `CCOC(=O)NC(C(F)(F)F)(C(F)(F)F)P(=O)(OC(C)C)OC(C)C`, with over 100 µM; and `O=C(O)C1CC2C3CCC2C1C3=O` (stereo not given), with over 100 µM.
`CCOC(=O)C(c1c[nH]c2ccccc12)(c1c[nH]c2ccccc12)c1c[nH]c2ccccc12`: the TGI was over 100 µM.
Same read-out and setting: then `CN(C)c1ccc(-c2c(C#N)c(N)[nH]c(=S)c2C#N)cc1`, with over 100 µM; and `O=c1[nH]c(=O)n(C2OC(CO)C(O)C(F)C2O)cc1F` (stereo not given), with over 100 µM; and `CCOC(=O)/C(C)=C\[C@@]1(C)O[C@@H](C)[C@@](C)(OC(C)=O)[C@@H]1OC(C)=O`, with over 100 µM.

The next assay relates to NCI-H522 lung. Kind of assay: growth of human tumour cells (NCI), 48 h.
In turn, `O=c1c2cc(S(=O)(=O)Nc3ccccc3Cl)ccc2ncn1NS(=O)(=O)c1ccc(Br)cc1` yielded a TGI of over 37.5 µM.
Same read-out and setting: under `CC1=C(C(=O)Nc2cccc3c2C(=O)NC3=O)CC(C(=O)Nc2cccc3c2C(=O)NC3=O)=C(C)N1` stands over 100 µM; under `CC1C2CC(CC(=O)N2)C1(C)C` (stereo not given), over 100 µM; under `CCOC(=O)CCC(NC(=O)Cc1ccc(Nc2nc3ccccc3nc2-c2ccccc2)cc1)C(=O)OCC` (stereo not given), over 100 µM.
As for `Cc1occc1C(=S)Nc1ccc(Cl)c(C(=O)OCC(F)(F)F)c1`, the TGI amounted to 45.5 µM.
On the same count and under the same terms, then `O=C(O)C1CC2C3CCC2C1C3=O` (stereo not given), with over 100 µM; and `CCOC(=O)C(c1c[nH]c2ccccc12)(c1c[nH]c2ccccc12)c1c[nH]c2ccccc12`, with 80.1 µM.
Still for that read-out and setting: under `CN(C)c1ccc(-c2c(C#N)c(N)[nH]c(=S)c2C#N)cc1` stands over 100 µM.
The compound `O=c1[nH]c(=O)n(C2OC(CO)C(O)C(F)C2O)cc1F` (stereo not given) gave a TGI of over 100 µM.
Same read-out and setting: then `CCOC(=O)/C(C)=C\[C@@]1(C)O[C@@H](C)[C@@](C)(OC(C)=O)[C@@H]1OC(C)=O`, with 62.7 µM.

For the next assay, the system named is SF-539 CNS. Kind of assay: growth of human tumour cells (NCI), 48 h.
The compound `O=c1c2cc(S(=O)(=O)Nc3ccccc3Cl)ccc2ncn1NS(=O)(=O)c1ccc(Br)cc1` displayed a TGI of over 37.5 µM.
Same read-out and setting: under `CC1=C(C(=O)Nc2cccc3c2C(=O)NC3=O)CC(C(=O)Nc2cccc3c2C(=O)NC3=O)=C(C)N1` stands over 100 µM.
Same read-out and setting: then `N#CC1(C#N)C2CCCCC23OC(=N)C1(C#N)C(c1ccco1)O3` (stereo not given), with 51.6 µM; and `CC1C2CC(CC(=O)N2)C1(C)C` (stereo not given), with over 100 µM.
Still for that read-out and setting: under `CCOC(=O)CCC(NC(=O)Cc1ccc(Nc2nc3ccccc3nc2-c2ccccc2)cc1)C(=O)OCC` (stereo not given) stands over 100 µM; under `Cc1occc1C(=S)Nc1ccc(Cl)c(C(=O)OCC(F)(F)F)c1`, 18.1 µM; under `CCOC(=O)NC(C(F)(F)F)(C(F)(F)F)P(=O)(OC(C)C)OC(C)C`, over 100 µM.
For `O=C(O)C1CC2C3CCC2C1C3=O` (stereo not given), the TGI was over 100 µM.
Still for that read-out and setting: then `CCOC(=O)C(c1c[nH]c2ccccc12)(c1c[nH]c2ccccc12)c1c[nH]c2ccccc12`, with over 100 µM.
On the same count and under the same terms, under `CN(C)c1ccc(-c2c(C#N)c(N)[nH]c(=S)c2C#N)cc1` stands over 100 µM; under `O=c1[nH]c(=O)n(C2OC(CO)C(O)C(F)C2O)cc1F` (stereo not given), over 100 µM; under `CCOC(=O)/C(C)=C\[C@@]1(C)O[C@@H](C)[C@@](C)(OC(C)=O)[C@@H]1OC(C)=O`, over 100 µM.

The subject of the next assay is EKVX NSCLC. In words: growth of human tumour cells (NCI), 48 h.
For `O=c1c2cc(S(=O)(=O)Nc3ccccc3Cl)ccc2ncn1NS(=O)(=O)c1ccc(Br)cc1`, the TGI is over 37.5 µM.
In the case of `CC1=C(C(=O)Nc2cccc3c2C(=O)NC3=O)CC(C(=O)Nc2cccc3c2C(=O)NC3=O)=C(C)N1`, the TGI is over 100 µM.
`N#CC1(C#N)C2CCCCC23OC(=N)C1(C#N)C(c1ccco1)O3` (stereo not given): the TGI worked out at 79.3 µM.
Same read-out and setting: then `CC1C2CC(CC(=O)N2)C1(C)C` (stereo not given), with over 100 µM; and `CCOC(=O)CCC(NC(=O)Cc1ccc(Nc2nc3ccccc3nc2-c2ccccc2)cc1)C(=O)OCC` (stereo not given), with over 100 µM.
For the compound `Cc1occc1C(=S)Nc1ccc(Cl)c(C(=O)OCC(F)(F)F)c1`, the TGI was 64.2 µM.
Still for that read-out and setting: then `CCOC(=O)NC(C(F)(F)F)(C(F)(F)F)P(=O)(OC(C)C)OC(C)C`, with over 100 µM.
Compound `O=C(O)C1CC2C3CCC2C1C3=O` (stereo not given) had a TGI of over 100 µM.
`CCOC(=O)C(c1c[nH]c2ccccc12)(c1c[nH]c2ccccc12)c1c[nH]c2ccccc12` yielded a TGI of over 100 µM.
For `CN(C)c1ccc(-c2c(C#N)c(N)[nH]c(=S)c2C#N)cc1`, the TGI was over 100 µM.
Same read-out and setting: then `CCOC(=O)/C(C)=C\[C@@]1(C)O[C@@H](C)[C@@](C)(OC(C)=O)[C@@H]1OC(C)=O`, with over 100 µM.

The subject of another assay is SF-295 CNS. In words: growth of human tumour cells (NCI), 48 h.
For `O=c1c2cc(S(=O)(=O)Nc3ccccc3Cl)ccc2ncn1NS(=O)(=O)c1ccc(Br)cc1`, the TGI is over 37.5 µM.
For the compound `CC1=C(C(=O)Nc2cccc3c2C(=O)NC3=O)CC(C(=O)Nc2cccc3c2C(=O)NC3=O)=C(C)N1`, the TGI was over 100 µM.
Same read-out and setting: under `N#CC1(C#N)C2CCCCC23OC(=N)C1(C#N)C(c1ccco1)O3` (stereo not given) stands over 100 µM.
